Patent publication US20070179125A1, “Aminopyrimidines useful as kinase inhibitors” (priority 2005, published 2007)

Columns and labels:
Type in all cases: biochemical
Aurora-1 (Aurora B) = Aurora-1 (Aurora B) (Homo sapiens, UniProt Q96GD4); assay: Aurora-1 (Aurora B) inhibition assay (radiometric); settings: 800 μM ATP, Kemptide, 25° C.
Procedure: An assay buffer solution was prepared which consisted of 25 mM HEPES (pH 7.5), 10 mM MgCl2, 0.1% BSA and 10% glycerol. A 22 nM Aurora-B solution, also containing 1.7 mM DTT and 1.5 mM Kemptide (LRRASLG), was prepared in assay buffer. To 22 μL of the Aurora-B solution, in a 96-well plate, was added 2 μl of a compound stock solution in DMSO and the mixture allowed to equilibrate for 10 minutes at 25° C. The enzyme reaction was initiated by the addition of 16 μl stock [γ-^33P]-ATP solution (˜20 nCi/μL) prepared in assay buffer, to a final assay concentration of 800 μM. The reaction was stopped after 3 hours by the addition of 16 μL 500 mM phosphoric acid and the levels of ^33P incorporation into the peptide substrate were determined by the following method.
A phosphocellulose 96-well plate (Millipore, Cat no. MAPHNOB50) was pre-treated with 100 μL of a 100 mM phosphoric acid prior to the addition of the enzyme reaction mixture (40 μL). […] Levels of non-enzyme catalyzed background radioactivity were determined by adding 16 μL of the 500 mM phosphoric acid to control wells, containing all assay components (which acts to denature the enzyme), prior to the addition of the [γ-^33P]-ATP solution. Levels of enzyme catalyzed ^33P incorporation were calculated by subtracting mean background counts from those measured at each inhibitor concentration. […]

JAK3 = target: T1, JAK3 (Homo sapiens, UniProt P52333); assay: JAK3 inhibition assay; settings: 5 μM ATP, 1 μM poly(Glu)4Tyr, 1 nM JAK3, 25° C.
T1 sequence (P52333 1-1124): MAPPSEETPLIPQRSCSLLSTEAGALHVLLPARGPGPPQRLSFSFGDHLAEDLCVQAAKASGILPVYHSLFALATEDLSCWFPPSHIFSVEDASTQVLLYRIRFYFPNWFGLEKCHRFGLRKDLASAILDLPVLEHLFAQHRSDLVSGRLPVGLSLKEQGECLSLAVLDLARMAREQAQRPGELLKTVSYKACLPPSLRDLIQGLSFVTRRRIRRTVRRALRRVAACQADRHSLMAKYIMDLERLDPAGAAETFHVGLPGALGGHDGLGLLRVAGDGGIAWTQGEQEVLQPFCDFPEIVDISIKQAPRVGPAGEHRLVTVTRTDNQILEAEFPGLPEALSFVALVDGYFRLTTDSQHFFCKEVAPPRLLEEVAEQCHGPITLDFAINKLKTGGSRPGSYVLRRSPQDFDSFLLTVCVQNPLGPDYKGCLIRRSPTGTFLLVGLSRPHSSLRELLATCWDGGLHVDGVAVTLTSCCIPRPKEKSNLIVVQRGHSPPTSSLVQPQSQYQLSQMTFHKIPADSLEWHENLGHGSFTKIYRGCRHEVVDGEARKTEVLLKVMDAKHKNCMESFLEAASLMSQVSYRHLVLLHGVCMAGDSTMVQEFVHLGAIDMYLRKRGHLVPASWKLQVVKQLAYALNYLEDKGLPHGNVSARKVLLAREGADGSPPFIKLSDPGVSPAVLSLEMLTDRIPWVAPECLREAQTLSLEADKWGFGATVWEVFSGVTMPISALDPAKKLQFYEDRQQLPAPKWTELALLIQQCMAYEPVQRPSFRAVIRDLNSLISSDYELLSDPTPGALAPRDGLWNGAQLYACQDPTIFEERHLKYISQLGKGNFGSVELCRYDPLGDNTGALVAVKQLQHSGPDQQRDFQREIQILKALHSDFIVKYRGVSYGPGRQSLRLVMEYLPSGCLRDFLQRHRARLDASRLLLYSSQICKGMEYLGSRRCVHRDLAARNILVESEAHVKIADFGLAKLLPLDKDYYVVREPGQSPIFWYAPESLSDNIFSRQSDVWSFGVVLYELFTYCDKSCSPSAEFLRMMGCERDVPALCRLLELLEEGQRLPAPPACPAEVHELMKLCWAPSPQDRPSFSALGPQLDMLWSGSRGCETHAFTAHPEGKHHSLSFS
Procedure: (§1) Compounds were screened for their ability to inhibit JAK using the assay shown below. Reactions were carried out in a kinase buffer containing 100 mM HEPES (pH 7.4), 1 mM DTT, 10 mM MgCl2, 25 mM NaCl, and 0.01% BSA.
(§2) Substrate concentrations in the assay were 5 μM ATP (200 uCi/μmole ATP) and 1 μM poly(Glu)4Tyr. Reactions were carried out at 25° C. and 1 nM JAK3.
(§3) To each well of a 96 well polycarbonate plate was added 1.5 μl of a candidate JAK3 inhibitor along with 50 μl of kinase buffer containing 2 μM poly(Glu)4Tyr and 10 μM ATP. This was then mixed and 50 μl of kinase buffer containing 2 nM JAK3 enzyme was added to start the reaction. After 20 minutes at room temperature (25 C), the reaction was stopped with 50 μl of 20% trichloroacetic acid (TCA) that also contained 0.4 mM ATP. The entire contents of each well were then transferred to a 96 well glass fiber filter plate using a TomTek Cell Harvester. After washing, 60 μl of scintillation fluid was added and ^33P incorporation detected on a Perkin Elmer TopCount.

Aurora-2 (Aurora A) = target: T2, Aurora-2 (Aurora A) (Homo sapiens, UniProt O14965); assay: Aurora-2 (Aurora A) inhibition assay, coupled enzyme; settings: 400 μM ATP, 570 μM Kemptide, 40 nM Aurora-2, 30° C.
T2 sequence (O14965 1-403): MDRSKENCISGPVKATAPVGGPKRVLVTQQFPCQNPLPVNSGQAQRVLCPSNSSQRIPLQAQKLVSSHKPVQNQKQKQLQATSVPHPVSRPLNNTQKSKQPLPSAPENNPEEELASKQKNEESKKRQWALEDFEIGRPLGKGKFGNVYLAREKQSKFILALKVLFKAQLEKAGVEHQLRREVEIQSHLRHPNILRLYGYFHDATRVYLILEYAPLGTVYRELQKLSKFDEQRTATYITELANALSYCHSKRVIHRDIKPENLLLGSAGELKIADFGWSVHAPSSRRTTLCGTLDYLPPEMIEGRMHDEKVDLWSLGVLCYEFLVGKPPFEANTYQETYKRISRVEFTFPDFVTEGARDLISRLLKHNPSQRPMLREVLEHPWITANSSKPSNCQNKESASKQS
Procedure: Compounds were screened for their ability to inhibit Aurora-2 using a standard coupled enzyme assay (Fox et al., Protein Sci., (1998) 7, 2249). Assays were carried out in a mixture of 100 mM Hepes (pH7.5), 10 mM MgCl2, 1 mM DTT, 25 mM NaCl, 2.5 mM phosphoenolpyruvate, 300 μM NADH, 30 μg/ml pyruvate kinase and 10 μg/ml lactate dehydrogenase. Final substrate concentrations in the assay are 400 μM ATP (Sigma Chemicals) and 570 μM peptide (Kemptide, American Peptide, Sunnyvale, Calif.). Assays were carried out at 30° C. and in the presence of 40 nM Aurora-2.
An assay stock buffer solution was prepared containing all of the reagents listed above, with the exception of Aurora-2 and the test compound of interest. 55 μl of the stock solution was placed in a 96 well plate followed by addition of 2 μl of DMSO stock containing serial dilutions of the test compound (typically starting from a final concentration of 7.5 μM). The plate was preincubated for 10 minutes at 30° C. and the reaction initiated by addition of 10 μl of Aurora-2. Initial reaction rates were determined with a Molecular Devices SpectraMax Plus plate reader over a 10 minute time course. IC50 and Ki data were calculated from non-linear regression analysis using the Prism software package (GraphPad Prism version 3.0cx for Macintosh, GraphPad Software, San Diego Calif., USA).

human Itk kinase = target: T3, human Itk kinase (Homo sapiens, UniProt Q08881); assay: Itk inhibition assay, radioactivity-based; settings: Ki(app); 7.5 μM ATP, 3 μM SAM68 peptide, 50 nM Itk, 25° C.
T3 sequence (Q08881 1-620): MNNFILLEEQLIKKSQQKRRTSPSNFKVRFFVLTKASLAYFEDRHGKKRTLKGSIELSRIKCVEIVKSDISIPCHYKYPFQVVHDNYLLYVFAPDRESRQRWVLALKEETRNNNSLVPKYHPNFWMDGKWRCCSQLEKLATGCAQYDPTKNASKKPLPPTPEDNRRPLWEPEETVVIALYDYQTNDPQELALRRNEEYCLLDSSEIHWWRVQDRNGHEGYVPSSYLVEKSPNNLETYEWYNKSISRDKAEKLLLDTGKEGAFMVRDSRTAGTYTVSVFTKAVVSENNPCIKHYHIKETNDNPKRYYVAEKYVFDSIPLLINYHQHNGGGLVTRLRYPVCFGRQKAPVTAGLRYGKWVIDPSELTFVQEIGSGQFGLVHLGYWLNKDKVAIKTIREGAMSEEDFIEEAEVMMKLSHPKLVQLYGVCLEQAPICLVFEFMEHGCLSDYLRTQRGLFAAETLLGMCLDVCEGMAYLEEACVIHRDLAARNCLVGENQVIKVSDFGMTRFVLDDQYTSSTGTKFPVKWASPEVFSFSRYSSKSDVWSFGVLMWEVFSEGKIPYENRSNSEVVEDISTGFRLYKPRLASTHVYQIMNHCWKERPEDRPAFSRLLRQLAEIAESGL
Procedure: The compounds of the present invention were evaluated as inhibitors of human Itk kinase using a radioactivity-based assay.
Assays were carried out in a mixture of 20 mM MOPS (pH 7.0), 10 mM MgCl2, 0.1% BSA and 1 mM DTT. Final substrate concentrations in the assay were 7.5 μM [γ-^33P]ATP (400 μCi ^33P ATP/μmol ATP, Amersham Pharmacia Biotech/Sigma Chemicals) and 3 μM peptide (SAM68 protein Δ332-443). Assays were carried out at 25° C. in the presence of 50 nM Itk. An assay stock buffer solution was prepared containing all of the reagents listed above, with the exception of ATP and the test compound of interest. 50 μL of the stock solution was placed in a 96 well plate followed by addition of 2 μL of DMSO stock containing serial dilutions of the test compound (typically starting from a final concentration of 50 μM with 2-fold serial dilutions) in duplicate (final DMSO concentration 2%). The plate was pre-incubated for 10 minutes at 25° C. and the reaction initiated by addition of 50 μL [γ-^33P]ATP (final concentration 7.5 μM).
The reaction was stopped after 10 minutes by the addition of 100 μL 0.2M phosphoric acid+0.01% TWEEN 20. […]
Ki(app) data were calculated from non-linear regression analysis of the initial rate data using the Prism software package (GraphPad Prism version 3.0cx for Macintosh, GraphPad Software, San Diego Calif., USA).

JAK-2 enzyme = JAK-2 enzyme (Homo sapiens, UniProt O60674); assay: JAK2 inhibition assay; settings: 12 μM ATP, 15 μM poly(Glu)4Tyr
Procedure: as §1, §2, §3
The assays are as described above in Example 3 except that JAK-2 enzyme is used, the final poly(Glu)4Tyr concentration is 15 μM, and final ATP concentration is 12 μM.

JAK-2 enzyme, sequence (O60674 whole entry, species assumed): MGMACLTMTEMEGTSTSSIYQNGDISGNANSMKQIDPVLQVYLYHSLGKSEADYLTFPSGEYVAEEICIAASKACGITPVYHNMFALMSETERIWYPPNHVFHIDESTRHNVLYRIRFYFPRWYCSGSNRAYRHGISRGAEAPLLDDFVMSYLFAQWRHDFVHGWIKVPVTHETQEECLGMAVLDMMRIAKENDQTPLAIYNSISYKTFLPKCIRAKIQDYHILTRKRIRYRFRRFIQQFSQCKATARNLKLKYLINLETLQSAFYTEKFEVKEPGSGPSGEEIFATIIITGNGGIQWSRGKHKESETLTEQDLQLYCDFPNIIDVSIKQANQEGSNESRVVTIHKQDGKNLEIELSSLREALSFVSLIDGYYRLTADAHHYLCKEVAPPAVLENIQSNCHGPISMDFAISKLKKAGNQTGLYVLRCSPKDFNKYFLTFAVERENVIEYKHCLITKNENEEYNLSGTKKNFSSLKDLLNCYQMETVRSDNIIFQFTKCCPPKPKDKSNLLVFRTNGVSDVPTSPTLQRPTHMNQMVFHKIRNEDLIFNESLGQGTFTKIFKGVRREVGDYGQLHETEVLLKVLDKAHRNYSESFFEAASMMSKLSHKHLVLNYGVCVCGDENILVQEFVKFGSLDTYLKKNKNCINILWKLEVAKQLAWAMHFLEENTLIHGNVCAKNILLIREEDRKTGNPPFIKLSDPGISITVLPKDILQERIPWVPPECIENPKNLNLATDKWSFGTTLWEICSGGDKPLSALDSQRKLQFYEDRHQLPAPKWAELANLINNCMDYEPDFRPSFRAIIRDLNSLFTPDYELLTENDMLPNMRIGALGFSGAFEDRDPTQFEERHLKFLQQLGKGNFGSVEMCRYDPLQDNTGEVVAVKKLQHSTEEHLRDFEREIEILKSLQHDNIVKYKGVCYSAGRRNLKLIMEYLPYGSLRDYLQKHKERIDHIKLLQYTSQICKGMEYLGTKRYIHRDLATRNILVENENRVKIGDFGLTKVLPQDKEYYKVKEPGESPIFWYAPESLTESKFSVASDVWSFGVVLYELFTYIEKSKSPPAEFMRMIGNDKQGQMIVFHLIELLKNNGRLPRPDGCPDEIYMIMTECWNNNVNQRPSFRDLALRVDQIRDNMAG
Aurora-1 (Aurora B), sequence (Q96GD4 whole entry, species assumed): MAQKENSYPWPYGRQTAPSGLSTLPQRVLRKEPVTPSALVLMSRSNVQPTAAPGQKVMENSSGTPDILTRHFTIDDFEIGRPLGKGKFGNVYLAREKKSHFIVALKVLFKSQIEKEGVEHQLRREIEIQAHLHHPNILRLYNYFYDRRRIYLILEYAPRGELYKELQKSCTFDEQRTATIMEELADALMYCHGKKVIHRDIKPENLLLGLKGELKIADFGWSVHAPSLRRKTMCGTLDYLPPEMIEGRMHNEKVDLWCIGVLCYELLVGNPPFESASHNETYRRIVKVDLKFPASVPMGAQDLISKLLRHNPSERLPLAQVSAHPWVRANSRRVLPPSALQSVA

Row | Compound | Ki (Aurora-1 (Aurora B)) [nM] | Ki (JAK3) [nM] | Ki (Aurora-2 (Aurora A)) [nM] | Ki (human Itk kinase) [nM] | Ki (JAK-2 enzyme) [nM]
1 | Cc1cc(Nc2cc(N3CC(F)(C4CC4)C3)nc(O[C@H]3CCN(C(=O)c4cc(Cl)ccc4F)C3)n2)[nH]n1 [Compound I-3, (S)-(5-chloro-2-fluorophenyl)(3-(4-(3-cyclopropyl-3-fluoroazetidin-1-yl)-6-(3-methyl-1H-pyrazol-5-ylamino)pyrimidin-2-yloxy)pyrrolidin-1-yl)methanone] | < 25 | < 250 | – | – | –
2 | Cc1cc(Nc2cc(N3CCC3)nc(O[C@H]3CCN(C(=O)OC(C)(C)C)C3)n2)[nH]n1 [Compound I-1, (S)-3-[4-Azetidin-1-yl-6-(5-methyl-2H-pyrazol-3-ylamino)-pyrimidin-2-yloxy]-pyrrolidine-1-carboxylic acid tert-butyl ester] | – | – | < 50 | < 1000 | < 250
